Tests used:
Type in all cases: cell-based
[1] = target: T1, human TLR7 (Homo sapiens, UniProt Q9NYK1); assay: TLR7 inhibition reporter assay (HEK-Blue, SEAP); settings: HEK-Blue cells overexpressing human TLR7, gardiquimod 7.5 μM, 22 hour incubation
T1 construct: host or cells: HEK-Blue cells
T1 sequence (Q9NYK1 27-1049): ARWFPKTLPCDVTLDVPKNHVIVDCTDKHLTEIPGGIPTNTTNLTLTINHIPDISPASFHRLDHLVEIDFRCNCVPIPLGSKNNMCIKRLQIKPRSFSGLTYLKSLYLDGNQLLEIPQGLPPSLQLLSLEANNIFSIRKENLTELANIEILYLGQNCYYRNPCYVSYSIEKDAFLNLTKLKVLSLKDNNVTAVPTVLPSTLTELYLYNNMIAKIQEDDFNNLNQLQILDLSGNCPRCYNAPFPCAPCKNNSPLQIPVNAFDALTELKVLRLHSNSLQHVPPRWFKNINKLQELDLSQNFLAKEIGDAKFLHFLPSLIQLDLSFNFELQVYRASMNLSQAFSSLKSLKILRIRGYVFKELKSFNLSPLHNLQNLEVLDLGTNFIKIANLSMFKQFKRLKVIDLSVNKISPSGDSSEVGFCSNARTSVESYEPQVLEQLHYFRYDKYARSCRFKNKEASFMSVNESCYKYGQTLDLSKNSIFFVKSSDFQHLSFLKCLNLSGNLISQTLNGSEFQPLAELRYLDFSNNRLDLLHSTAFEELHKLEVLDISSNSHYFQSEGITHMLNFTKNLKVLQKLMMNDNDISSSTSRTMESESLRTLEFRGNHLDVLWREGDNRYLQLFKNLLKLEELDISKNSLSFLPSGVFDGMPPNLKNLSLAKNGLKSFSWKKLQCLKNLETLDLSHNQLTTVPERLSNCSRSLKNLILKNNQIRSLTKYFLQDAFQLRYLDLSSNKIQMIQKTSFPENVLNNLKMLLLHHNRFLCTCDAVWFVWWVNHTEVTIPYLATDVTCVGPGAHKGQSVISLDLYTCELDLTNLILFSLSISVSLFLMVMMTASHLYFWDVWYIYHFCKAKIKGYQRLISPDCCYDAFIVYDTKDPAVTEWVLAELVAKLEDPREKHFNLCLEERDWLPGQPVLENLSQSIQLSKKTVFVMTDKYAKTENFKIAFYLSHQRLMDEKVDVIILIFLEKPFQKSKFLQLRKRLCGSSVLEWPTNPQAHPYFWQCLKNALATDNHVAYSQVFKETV
Summary of the method: (§1)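 HEK-Blue cells overexpressing human TLR7, TLR8 or TLR9 carry a SEAP reporter driven by NF-κB/AP-1 sites. Compounds (0.05 nM–50 μM) were preincubated 30 min at room temperature, then cells were stimulated with gardiquimod 7.5 μM (TLR7), R848 15.9 μM (TLR8) or ODN2006 5 nM (TLR9) for 22 h at 37 °C.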

[2] = target: T2, human TLR8 (Homo sapiens, UniProt Q9NR97); assay: TLR8 inhibition reporter assay (HEK-Blue, SEAP); settings: HEK-Blue cells overexpressing human TLR8, R848 15.9 μM, 22 hour incubation
T2 construct: host or cells: HEK-Blue cells
T2 sequence (Q9NR97 27-1041): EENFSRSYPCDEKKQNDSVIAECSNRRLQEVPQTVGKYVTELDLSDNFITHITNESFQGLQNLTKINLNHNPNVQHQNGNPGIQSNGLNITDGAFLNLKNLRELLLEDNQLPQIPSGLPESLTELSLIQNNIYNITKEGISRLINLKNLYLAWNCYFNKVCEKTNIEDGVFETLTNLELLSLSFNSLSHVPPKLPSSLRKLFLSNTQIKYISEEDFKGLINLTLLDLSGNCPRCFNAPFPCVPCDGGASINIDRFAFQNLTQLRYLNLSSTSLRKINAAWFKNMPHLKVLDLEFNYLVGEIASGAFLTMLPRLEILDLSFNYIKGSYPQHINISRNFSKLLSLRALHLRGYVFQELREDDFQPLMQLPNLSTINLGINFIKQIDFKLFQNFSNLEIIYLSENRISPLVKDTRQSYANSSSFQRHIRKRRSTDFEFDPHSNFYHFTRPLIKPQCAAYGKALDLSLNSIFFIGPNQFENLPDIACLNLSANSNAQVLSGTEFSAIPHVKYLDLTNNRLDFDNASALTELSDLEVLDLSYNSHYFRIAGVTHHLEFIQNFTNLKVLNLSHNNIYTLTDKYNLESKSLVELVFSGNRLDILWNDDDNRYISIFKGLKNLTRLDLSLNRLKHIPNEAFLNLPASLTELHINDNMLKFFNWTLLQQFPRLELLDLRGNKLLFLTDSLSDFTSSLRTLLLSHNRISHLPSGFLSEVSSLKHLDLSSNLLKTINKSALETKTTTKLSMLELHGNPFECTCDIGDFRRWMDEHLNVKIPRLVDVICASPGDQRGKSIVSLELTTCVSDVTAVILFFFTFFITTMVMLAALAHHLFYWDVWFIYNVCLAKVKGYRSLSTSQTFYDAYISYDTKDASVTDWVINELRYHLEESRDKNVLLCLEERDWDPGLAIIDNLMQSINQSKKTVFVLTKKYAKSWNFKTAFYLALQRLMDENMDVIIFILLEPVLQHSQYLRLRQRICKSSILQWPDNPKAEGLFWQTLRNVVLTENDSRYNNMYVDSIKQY
Summary of the method: as §1

[3] = target: T3, human TLR9 (Homo sapiens, UniProt Q9NR96); assay: TLR9 inhibition reporter assay (HEK-Blue, SEAP); settings: HEK-Blue cells overexpressing human TLR9, ODN2006 5 nM, 22 hour incubation
T3 construct: host or cells: HEK-Blue cells
T3 sequence (Q9NR96 26-1032): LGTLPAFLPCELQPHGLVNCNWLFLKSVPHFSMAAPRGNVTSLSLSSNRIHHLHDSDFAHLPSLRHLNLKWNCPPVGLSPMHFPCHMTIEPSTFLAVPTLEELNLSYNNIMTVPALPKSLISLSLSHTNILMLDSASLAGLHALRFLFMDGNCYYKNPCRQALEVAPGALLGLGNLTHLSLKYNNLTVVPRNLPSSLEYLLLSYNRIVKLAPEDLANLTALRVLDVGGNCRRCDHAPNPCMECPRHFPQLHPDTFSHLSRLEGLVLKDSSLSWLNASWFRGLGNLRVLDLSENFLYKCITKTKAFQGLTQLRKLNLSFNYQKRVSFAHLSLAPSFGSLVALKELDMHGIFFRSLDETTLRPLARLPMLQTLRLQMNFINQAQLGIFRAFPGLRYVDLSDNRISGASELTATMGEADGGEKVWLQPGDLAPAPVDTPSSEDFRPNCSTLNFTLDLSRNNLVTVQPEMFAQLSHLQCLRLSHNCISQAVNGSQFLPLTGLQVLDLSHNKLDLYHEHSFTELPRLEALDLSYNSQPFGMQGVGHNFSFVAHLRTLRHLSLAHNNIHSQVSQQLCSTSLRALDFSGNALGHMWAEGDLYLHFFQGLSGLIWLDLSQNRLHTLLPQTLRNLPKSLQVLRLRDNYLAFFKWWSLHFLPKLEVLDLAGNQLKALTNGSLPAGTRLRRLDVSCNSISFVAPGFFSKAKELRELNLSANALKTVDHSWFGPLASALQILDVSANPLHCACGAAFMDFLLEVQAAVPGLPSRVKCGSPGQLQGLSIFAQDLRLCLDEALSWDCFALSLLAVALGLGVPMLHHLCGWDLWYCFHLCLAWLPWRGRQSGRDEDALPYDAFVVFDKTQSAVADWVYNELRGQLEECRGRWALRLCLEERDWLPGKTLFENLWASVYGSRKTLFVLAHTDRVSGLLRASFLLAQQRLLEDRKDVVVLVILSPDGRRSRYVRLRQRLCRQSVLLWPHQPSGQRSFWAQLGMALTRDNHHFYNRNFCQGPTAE
Summary of the method: as §1

SMILES	IC50 [1] [µM]	IC50 [2] [µM]	IC50 [3] [µM]
Cc1cc(-c2[nH]c3ccc(C4CCN(C5COC5)CC4)cc3c2C(C)C)cn2cnnc12 [Example 63, 6-(3-isopropyl-5-(1-(oxetan-3-yl)piperidin-4-yl)-1H-indol-2-yl)-8-methyl-[1,2,4]triazolo[4,3-a]pyridine]	0.0017	0.0076	10.8
CC(C)c1c(-c2ccc3nncn3c2)[nH]c2ccc(C3CCN(C4CCOCC4)CC3)cc12 [Example 64, 6-(3-isopropyl-5-(1-(tetrahydro-2H-pyran-4-yl)piperidin-4-yl)-1H-indol-2-yl)-[1,2,4]triazolo[4,3-a]pyridine]	0.0247	0.147	0.677
CC(C)c1c(-c2ccc3nncn3c2)[nH]c2ccc(C3CCN(C4COC4)CC3)cc12 [Example 65, 6-(3-isopropyl-5-(1-(oxetan-3-yl)piperidin-4-yl)-1H-indol-2-yl)-[1,2,4]triazolo[4,3-a]pyridine]	0.0218	0.341	15.1
Cc1cc2nncn2cc1-c1[nH]c2ccc(C3CCN(C4COC4)CC3)cc2c1C(C)C [Example 66, 6-(3-isopropyl-5-(1-(oxetan-3-yl)piperidin-4-yl)-1H-indol-2-yl)-7-methyl-[1,2,4]triazolo[4,3-a]pyridine]	0.0555	1.03	18.6
Cc1nnc2ccc(-c3[nH]c4ccc(C5CCN(C6COC6)CC5)cc4c3C(C)C)cn12 [Example 67, 6-(3-isopropyl-5-(1-(oxetan-3-yl)piperidin-4-yl)-1H-indol-2-yl)-3-methyl-[1,2,4]triazolo[4,3-a]pyridine]	0.0603	0.0166	10.1
Cc1cc2nncn2cc1-c1[nH]c2ccc(C3CCN(C4CCOCC4)CC3)cc2c1C(C)C [Example 68, 6-(3-isopropyl-5-(1-(tetrahydro-2H-pyran-4-yl)piperidin-4-yl)-1H-indol-2-yl)-7-methyl-[1,2,4]triazolo[4,3-a] pyridine]	0.0207	0.139	1.25
Cc1cc(-c2[nH]c3ccc(C4CCN(C5CCOCC5)CC4)cc3c2C(C)C)cn2cnnc12 [Example 69, 6-(3-isopropyl-5-(1-(tetrahydro-2H-pyran-4-yl)piperidin-4-yl)-1H-indol-2-yl)-8-methyl-[1,2,4]triazolo[4,3-a]pyridine]	0.0006	0.003	1.04
Cc1c(-c2[nH]c3ccc(C4CCN(C5CCOCC5)CC4)cc3c2C(C)C)ccc2nncn12 [Example 70, 6-(3-isopropyl-5-(1-(tetrahydro-2H-pyran-4-yl)piperidin-4-yl)-1H-indol-2-yl)-5-methyl-[1,2,4]triazolo[4,3-a]pyridine]	0.0835	0.0108	1.07
Cc1cc(-c2[nH]c3ccc(C4CCN(Cc5ccn(C)n5)CC4)cc3c2C(C)C)cn2c(C)nnc12 [Example 71, 6-(3-isopropyl-5-(1-((1-methyl-1H-pyrazol-3-yl)methyl)piperidin-4-yl)-1H-indol-2-yl)-3,8-dimethyl-[1,2,4]triazolo[4,3-a]pyridine]	0.0127	0.0018	1.13
Cc1cc(-c2[nH]c3ccc(C4CCN(C5COC5)CC4)cc3c2C(C)C)cn2c(C)nnc12 [Example 72, 6-(3-isopropyl-5-(1-(oxetan-3-yl)piperidin-4-yl)-1H-indol-2-yl)-3,8-dimethyl-[1,2,4]triazolo[4,3-a]pyridine]	0.0118	0.0117	7.87
Cc1cc(-c2[nH]c3ccc(C4CCN(C5CCOCC5)CC4)cc3c2C(C)C)cn2c(C)nnc12 [Example 73, 6-(3-isopropyl-5-(1-(tetrahydro-2H-pyran-4-yl)piperidin-4-yl)-1H-indol-2-yl)-3,8-dimethyl-[1,2,4]triazolo [4,3-a]pyridine]	0.0204	0.0019	0.562
Cc1cc(-c2[nH]c3ccc(C4CCN(Cc5ccn(C)n5)CC4)cc3c2C(C)C)cn2cnnc12 [Example 74, 6-(3-isopropyl-5-(1-((1-methyl-1H-pyrazol-3-yl)methyl)piperidin-4-yl)-1H-indol-2-yl)-8-methyl-[1,2,4]triazolo[4,3-a]pyridine]	0.0012	0.0017	0.908
Cc1c(-c2[nH]c3ccc(C4CCN(C5COC5)CC4)cc3c2C(C)C)cn2cnnc2c1C [Example 75, 6-(3-isopropyl-5-(1-(oxetan-3-yl)piperidin-4-yl)-1H-indol-2-yl)-7,8-dimethyl-[1,2,4]triazolo[4,3-a]pyridine]	0.0033	0.0217	23.8
Cc1cc(-c2[nH]c3ccc(C4CCN(C5COC5)CC4)cc3c2C(C)C)c(C)n2cnnc12 [Example 76, 6-(3-isopropyl-5-(1-(oxetan-3-yl)piperidin-4-yl)-1H-indol-2-yl)-5,8-dimethyl-[1,2,4]triazolo[4,3-a]pyridine]	0.106	0.0131	16.1

Reference: patent US11130756B2, “[1,2,4]Triazolo[4,3-A]pyridinyl substituted indole compounds” (BRISTOL-MYERS SQUIBB COMPANY, priority 2017, dated 2021)
